From patent US20190105389A1, “ADJUVANT SYSTEM FOR ORAL VACCINE ADMINISTRATION” (Vaxform LLC, priority 2012, published 2019)

Key:
[1] = Linkage (adsorption) of CTL receptor agonist to aluminum adjuvant (FIG. 2); assay type: physicochemical; details: aluminum oxyhydroxide
From the text: However, monosaccharides can be modified by a chemical group including but not limited to fluoride, phosphate, sulfate, or carbonate group which permits a ligand exchange linkage of the molecule to the aluminum-containing adjuvant. Method for modifying saccharides by addition of fluoride, phosphate, sulfate, or carbonate groups is well known in the art (Cantos, et al. Biochem. J. (1993) 288: 155-160; Carbohydrate Chemistry, Royal Society of Chemistry, Ed. RD Guthrie (1968)). This is illustrated in FIG. 2 utilizing mannose as the CTL receptor agonist and aluminum oxyhydroxide. […] However, addition of a phosphate group at the 1 position of mannose (M1P) results in approximately 100% linkage of the CTL agonist to the aluminum adjuvant.
Another method to the increased avidity of the saccharide for the aluminum adjuvant particle is polymerization. For instance the avidity of the saccharide for the aluminum adjuvant particle may be increased by increasing the size of the saccharide by polymerization to produce a polysaccharide. The increase avidity for the aluminum adjuvant is due to the larger number of interactions of a polysaccharide as compared to a monosaccharide to allow for the stable linkage of the polysaccharide agonist to the aluminum adjuvant particle. […]

[2] = Stability of CTL agonist linkage to aluminum particle on exposure to phosphate (FIG. 3A, 3B); assay type: physicochemical; details: exposed to 50 mM phosphate pH 7.4 for 30 minutes in the absence of antigen
From the text: It is important to maintain the stability of the CTL agonist linkage to the aluminum particle upon exposure to body fluid following administration. Components of interstitial fluid such as phosphate, citrate, and protein have the potential to remove the linkage of the CTL agonist with aluminum-containing adjuvants. The resulting soluble CTL agonist may adversely impact the immune response. FIG. 3A illustrates that M1P as well as mannan maintain approximately 100% linkage with aluminum oxyhydroxide when exposed to 50 mM phosphate pH 7.4 for 30 minutes in the absence of antigen.

O=P(O)(O)OC1O[C@H](CO)[C@@H](O)[C@H](O)[C@@H]1O (stereo partly shown) [Formulation M1P, mannose-1-phosphate]
Linkage of the CTL agonist to the aluminum adjuvant [1]: approximately 100%
Linkage with aluminum oxyhydroxide maintained [2]: approximately 100%

mannan
Linkage of the CTL agonist to the aluminum adjuvant [1]: approximately 100%
Linkage with aluminum oxyhydroxide maintained [2]: approximately 100%
